Patent publication US4812409A, “Hydrolyzable fluorescent substrates and analytical determinations using same” (Eastman Kodak Company, priority 1986, dated 1989)

Assays:
[1] = tested on: Enterobacter cloacae (ATCC 23355); experiment: Detection of Enterobacter cloacae with β-D-xylosidase substrate, fluorescence; type: cell-based; conditions: for Relative Fluorescence: 37° C., ex 540 nm, em 620 nm
Description: (§1) Cells were prepared as follows. A β-D-xylosidase induction medium was prepared by adding the following materials in order to 350 μl of 0.1 molar sodium, potassium phosphate buffer (pH 7.0), 25 μl 5% yeast extract, 50 μl of 4% (NH4)2 HPO4 and 1% KCl, 50 μl 0.0075% MnSO4.H2 O and 0.01% FeSO4.7H2 O. This mixture was autoclaved for 30 minutes, then cooled. Just before incubation, 25 μl of 20% xylose solution and 2% MgSO4.7H2 O, which had been filter sterilized or autoclaved separately, were added. Klebsiella pneumoniae (ATCC 13882) and Enterobacter cloacae (ATCC 23355) were both grown in this medium for 18 hours at 37° C. Ten milliliters of cells were harvested by centrifugation, washed, and resuspended in 0.1 molar potassium phosphate buffer (pH 7.0). The cell concentration was adjusted to approximately 5×10^8 cells/ml (optical density 0.800 at 620 nm).
(§2) In two milliliters HA 96 well titration plates were placed 200 μl of the cell suspension. To plate 1 was added 100 μl of the substrate solution of Example 1 without surfactant (10 μg/μl N,N-dimethylformamide in 9 μl potassium phosphate buffer), to plate 2 was added the substrate solution with surfactant (10 μg/μl N,N-dimethylformamide and 200 μl TRITON X-100 surfactant in 9 μl potassium phosphate buffer).
(§3) After the substrate was added, an initial reading was taken, the plates were kept at 37° C., and additional readings were taken after 5, 10, 15, 30, and 60 minutes. The average of three replicates was used. A commercially available Dynatech Microfluor Reader, modified with an excitation filter at 540 nm, an emission filter at 620 nm, a 200-watt tungsten lamp and a heating element, was used to measure fluorescence.

[2] = tested on: Klebsiella pneumoniae (ATCC 13882); experiment: Detection of Klebsiella pneumoniae with β-D-xylosidase substrate, fluorescence; type: cell-based; conditions: for Relative Fluorescence: 37° C., ex 540 nm, em 620 nm
Description: as §1, §2, §3

carboxylesterase, Type I = experiment: Determination of hydrolytic enzymes: carboxylesterase Type I; type: biochemical; conditions: pH 7.8, 25° C., ex 540 nm, em 595 nm
Description: (§4) Test solutions were prepared with the following: 50 μl of substrate (1 mg/μl methanol), […] of 0.05 molar potassium phosphate buffer at the indicated pH (near the optimum for each enzyme) and 10 μl of enzyme. Enzymes to be determined included carboxylesterase, Type I (pH 7.8) and Type II (pH 6.0), aminoacylase, Grade I (pH 7.0), and trypsin, Type I and III (pH 7.8). Sample preparations and testing were done in an area protected from light. The enzyme solutions were kept at 0° C. prior to use, and assays were run at 25° C. with fluorescence measured at an excitation of 540 nm and an emission of 595 nm.

trypsin, Type III = biological target: T1, trypsin, Type III (Bos taurus, UniProt P00760); experiment: Determination of hydrolytic enzymes: trypsin Type III; type: biochemical; conditions: pH 7.8, 25° C., ex 540 nm, em 595 nm
T1 sequence (P00760 24-246): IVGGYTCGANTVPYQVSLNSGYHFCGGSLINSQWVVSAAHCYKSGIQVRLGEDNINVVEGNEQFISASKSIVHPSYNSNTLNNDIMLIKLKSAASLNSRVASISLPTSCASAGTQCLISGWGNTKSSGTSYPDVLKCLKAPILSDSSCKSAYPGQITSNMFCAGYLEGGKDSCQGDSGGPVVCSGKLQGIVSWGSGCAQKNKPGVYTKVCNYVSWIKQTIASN
Description: as §4

trypsin, Type I = biological target: T2, trypsin, Type I (Bos taurus, UniProt P00760); experiment: Determination of hydrolytic enzymes: trypsin Type I; type: biochemical; conditions: pH 7.8, 25° C., ex 540 nm, em 595 nm
T2 sequence (P00760 24-246): T1 sequence (P00760 24-246)
Description: as §4

[3] = tested on: carboxylesterase, Type II; experiment: Determination of hydrolytic enzymes: carboxylesterase Type II; type: biochemical; conditions: Final Enzyme Activity 15 I.U., pH 6.0, 25° C., ex 540 nm, em 595 nm
Description: as §4

aminoacylase, Grade I = biological target: T3, aminoacylase, Grade I (Sus scrofa, UniProt P37111); experiment: Determination of hydrolytic enzymes: aminoacylase Grade I; type: biochemical; conditions: Final Enzyme Activity 3,000 I.U., pH 7.0, 25° C., ex 540 nm, em 595 nm
T3 sequence (P37111 2-407 limits assumed): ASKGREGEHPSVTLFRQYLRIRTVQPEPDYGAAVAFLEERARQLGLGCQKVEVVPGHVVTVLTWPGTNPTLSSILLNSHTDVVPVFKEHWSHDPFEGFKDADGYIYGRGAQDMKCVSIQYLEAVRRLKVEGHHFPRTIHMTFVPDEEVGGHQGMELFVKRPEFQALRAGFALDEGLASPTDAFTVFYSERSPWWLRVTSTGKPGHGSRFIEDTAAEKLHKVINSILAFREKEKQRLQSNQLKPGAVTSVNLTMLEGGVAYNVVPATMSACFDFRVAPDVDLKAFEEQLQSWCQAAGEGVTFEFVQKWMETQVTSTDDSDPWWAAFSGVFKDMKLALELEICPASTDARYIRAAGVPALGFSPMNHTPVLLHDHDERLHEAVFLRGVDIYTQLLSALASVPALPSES
Description: as §4

[4] = Millititer Plate 1, without surfactant, 0 min
[5] = Millititer Plate 1, without surfactant, 5 min
[6] = Millititer Plate 1, without surfactant, 10 min
[7] = Millititer Plate 1, without surfactant, 15 min
[8] = Millititer Plate 1, without surfactant, 30 min
[9] = Millititer Plate 1, without surfactant, 60 min
[10] = Millititer Plate 2, with TRITON X-100 surfactant, 0 min
[11] = Millititer Plate 2, with TRITON X-100 surfactant, 5 min
[12] = Millititer Plate 2, with TRITON X-100 surfactant, 10 min
[13] = Millititer Plate 2, with TRITON X-100 surfactant, 15 min
[14] = Millititer Plate 2, with TRITON X-100 surfactant, 30 min
[15] = Millititer Plate 2, with TRITON X-100 surfactant, 60 min
[16] = both substrate solutions (with and without surfactant)

O=C1C=Cc2ccc(O[C@@H]3OC[C@@H](O)[C@H](O)[C@H]3O)c3cccc1c23 [Example 1, 1-(6-Oxyphenalenone)-β-D-xylopyranose]
Relative Fluorescence [1, 4]: 525
Relative Fluorescence [1, 5]: 684
Relative Fluorescence [1, 6]: 925
Relative Fluorescence [1, 7]: 1150
Relative Fluorescence [1, 8]: 2245
Relative Fluorescence [1, 9]: 2717
Relative Fluorescence [1, 10]: 586
Relative Fluorescence [1, 11]: 902
Relative Fluorescence [1, 12]: 1341
Relative Fluorescence [1, 13]: 1795
Relative Fluorescence [1, 14]: 2626
Relative Fluorescence [1, 15]: 3003
Time at which the microorganism can be detected [1, 16]: 15 min
Relative Fluorescence [2, 4]: 500
Relative Fluorescence [2, 5]: 585
Relative Fluorescence [2, 6]: 698
Relative Fluorescence [2, 7]: 752
Relative Fluorescence [2, 8]: 1205
Relative Fluorescence [2, 9]: 1686
Relative Fluorescence [2, 10]: 557
Relative Fluorescence [2, 11]: 635
Relative Fluorescence [2, 12]: 741
Relative Fluorescence [2, 13]: 869
Relative Fluorescence [2, 14]: 1232
Relative Fluorescence [2, 15]: 1976
Time at which the microorganism can be detected [2, 16]: 15 min

CC(=O)Nc1ccc2c3c(cccc13)C(=O)C=C2 [Example 5]
Relative Fluorescence (minus control with no enzyme) (carboxylesterase, Type I; Final Enzyme Activity 9.6 I.U., 0 Min): 2.7
Relative Fluorescence (minus control with no enzyme) (carboxylesterase, Type I; Final Enzyme Activity 9.6 I.U., 10 Min): 3.6
Relative Fluorescence (minus control with no enzyme) (carboxylesterase, Type I; Final Enzyme Activity 9.6 I.U., 15 Min): 4.1
Relative Fluorescence (minus control with no enzyme) (carboxylesterase, Type I; Final Enzyme Activity 9.6 I.U., 30 Min): 4.4
Relative Fluorescence (minus control with no enzyme) (carboxylesterase, Type I; Final Enzyme Activity 96 I.U., 0 Min): 3.0
Relative Fluorescence (minus control with no enzyme) (carboxylesterase, Type I; Final Enzyme Activity 96 I.U., 10 Min): 6.1
Relative Fluorescence (minus control with no enzyme) (carboxylesterase, Type I; Final Enzyme Activity 96 I.U., 15 Min): 7.9
Relative Fluorescence (minus control with no enzyme) (carboxylesterase, Type I; Final Enzyme Activity 96 I.U., 30 Min): 12.5
Relative Fluorescence (minus control with no enzyme) (trypsin, Type III; Final Enzyme Activity 6,000 I.U., 0 Min): 2.7
Relative Fluorescence (minus control with no enzyme) (trypsin, Type III; Final Enzyme Activity 6,000 I.U., 10 Min): 2.8
Relative Fluorescence (minus control with no enzyme) (trypsin, Type III; Final Enzyme Activity 6,000 I.U., 15 Min): 3.0
Relative Fluorescence (minus control with no enzyme) (trypsin, Type III; Final Enzyme Activity 6,000 I.U., 30 Min): 3.6
Relative Fluorescence (minus control with no enzyme) (trypsin, Type III; Final Enzyme Activity 60,000 I.U., 0 Min): 2.2
Relative Fluorescence (minus control with no enzyme) (trypsin, Type III; Final Enzyme Activity 60,000 I.U., 10 Min): 3.5
Relative Fluorescence (minus control with no enzyme) (trypsin, Type III; Final Enzyme Activity 60,000 I.U., 15 Min): 3.4
Relative Fluorescence (minus control with no enzyme) (trypsin, Type III; Final Enzyme Activity 60,000 I.U., 30 Min): 4.3
Relative Fluorescence (minus control with no enzyme) (trypsin, Type I; Final Enzyme Activity 5,000 I.U., 0 Min): 0
Relative Fluorescence (minus control with no enzyme) (trypsin, Type I; Final Enzyme Activity 5,000 I.U., 10 Min): 0.5
Relative Fluorescence (minus control with no enzyme) (trypsin, Type I; Final Enzyme Activity 5,000 I.U., 15 Min): 0.6
Relative Fluorescence (minus control with no enzyme) (trypsin, Type I; Final Enzyme Activity 5,000 I.U., 30 Min): 0.8
Relative Fluorescence (minus control with no enzyme) (trypsin, Type I; Final Enzyme Activity 50,000 I.U., 0 Min): 0
Relative Fluorescence (minus control with no enzyme) (trypsin, Type I; Final Enzyme Activity 50,000 I.U., 10 Min): 0.7
Relative Fluorescence (minus control with no enzyme) (trypsin, Type I; Final Enzyme Activity 50,000 I.U., 15 Min): 0.9
Relative Fluorescence (minus control with no enzyme) (trypsin, Type I; Final Enzyme Activity 50,000 I.U., 30 Min): 1.5
Relative Fluorescence (minus control with no enzyme) ([3]; 0 Min): 2.0
Relative Fluorescence (minus control with no enzyme) ([3]; 10 Min): 5.4
Relative Fluorescence (minus control with no enzyme) ([3]; 15 Min): 8.0
Relative Fluorescence (minus control with no enzyme) ([3]; 30 Min): 15.8
Relative Fluorescence (minus control with no enzyme) (aminoacylase, Grade I; 0 Min): 1.5
Relative Fluorescence (minus control with no enzyme) (aminoacylase, Grade I; 10 Min): 2.0
Relative Fluorescence (minus control with no enzyme) (aminoacylase, Grade I; 15 Min): 2.1
Relative Fluorescence (minus control with no enzyme) (aminoacylase, Grade I; 30 Min): 2.3
